# What was measured:
# [1] = test system: NAD+; test: NAD+ levels in skeletal muscle of mice treated with NMN; type: in vivo, C57BL/6J mice; conditions: young and old
# Protocol: C57BL/6J mice of 3, 6, 22, 24, or 30 months of age were obtained from the National Institutes of Aging mouse aging colony. Mice were acclimated for at least one-week prior to sacrifice. 3, and 24-month-old mice were given interperitoneal (IP) injections of 500 mg NMN/kg body weight per day or the equivalent volume of PBS for 7 consecutive days at 5:00 pm and 7:00 am on day 8 and sacrificed 4 hr after last injection. All animal studies followed the guidelines of and were approved by the Harvard Institutional Animal Care and Use Committee
# NAD^+ from C2C12 cells and skeletal muscle was quantified with a commercially available kit (BioVision) according to the manufacturer's instructions and as described before (Gomes et al., Biochim. Biophys. Acta. 1822:185-195 (2012)).
# C57BL/6J mice of 6, 22, or 30 months of age were obtained from the National Institutes of Aging mouse aging colony. Additionally 22 months old caloric restricted mice were also obtained from the National Institutes of Aging mouse aging colony. EGLN1 KO, SIRT1 KO and SIRT1 OE mice were generated as previously described (Minamishima et al., 2008; Price et al., 2012). Mice were acclimated for at least one-week prior to sacrifice. […]
# NAD^+ from skeletal muscle was quantified with a commercially available kit (BioVision) according to the manufacturer's instructions and as described before (Gomes et al., 2012). […]
# [2] = test system: mitochondrial-encoded genes (ND1, Cytb, COX1 and ATP6); test: qPCR of mitochondrial-encoded genes in gastrocnemius of treated mice; type: in vivo
# From the text: (§1) C57BL/6J mice of 6, 22, or 30 months of age were obtained from the National Institutes of Aging mouse aging colony. Additionally 22 months old caloric restricted mice were also obtained from the National Institutes of Aging mouse aging colony. EGLN1 KO, SIRT1 KO and SIRT1 OE mice were generated as previously described (Minamishima et al., 2008; Price et al., 2012). Mice were acclimated for at least one-week prior to sacrifice. 3, 6, 22 and 24-month-old mice were given interperitoneal (IP) injections of 500 mg NMN/kg body weight per day or the equivalent volume of PBS for 7 consecutive days at 5:00 pm and 7:00 am on day 8 and sacrificed 4 hr after last injection.
# Whole body SIRT1 overexpressor (SIRT1-tg) mice of 6 months of age were given interperitoneal (IP) injections of 300 mg DMOG/kg body weight per day or the equivalent volume of PBS for 5 consecutive days.
# Whole body adult-inducible Egln1 knockout mice (Minamishima et al, 2007) were treated with IP injection of tamoxifen for 3 days after which they were allowed to rest. The mice were given interperitoneal (IP) injections of 500 mg NMN/kg body weight per day or the equivalent volume of PBS for 7 consecutive days at 5:00 pm and 7:00 am on day 8 and sacrificed 4 hr after last injection. All animal studies followed the guidelines of and were approved by the Harvard Institutional Animal Care and Use Committee.
# RNA from skeletal muscle tissue and C2C12 cells were extracted with RNeasy mini kit (Qiagen) according to the instructions and quantified using the NanoDrop 1000 spectrophotometer (Thermo Scientific). cDNA was synthesized with the iSCRIP cDNA synthesis kit (BioRad) using 600 ng of RNA. Quantitative RT-PCR reactions were performed using 1 μM of primers and LightCycler® 480 SYBR Green Master (Roche) on an LightCycler® 480 detection system (Roche). Calculations were performed by a comparative method (2-ΔCT) using 18S as an internal control. For mtDNA analysis, total DNA was extracted with DNeasy blood and tissue kit (Qiagen). mtDNA was amplified using primers specific for the mitochondrial cytochrome c oxidase subunit 2 (COX2) gene and normalized to genomic DNA by amplification of the ribosomal protein s18 (rps18) nuclear gene. Primers were designed using the IDT software (IDT) and the primer sequences can be found in Table 1.
# RNA from skeletal muscle and aorta were extracted with RNeasy mini kit (Qiagen) according to the instructions and quantified using the NanoDrop 1000 spectrophotometer (Thermo Scientific). cDNA was synthesized with the iSCRIP cDNA synthesis kit (BioRad) using 600 ng of RNA. Quantitative RT-PCR reactions were performed using 1 μM of primers and LightCycler® 480 SYBR Green Master (Roche) on an LightCycler® 480 detection system (Roche). […]
# [3] = test system: lactate; test: Lactate levels in skeletal muscle of treated mice; type: in vivo; conditions: 6- and 22-month-old mice; NMN one week
# From the text: as §1
# C57BL/6J mice of 3, 6, 22, or 24 months of age were obtained from the National Institutes of Aging mouse aging colony. Additionally 22 months old caloric restricted mice were also obtained from the National Institutes of Aging mouse aging colony. Mice were acclimated for at least one-week prior to sacrifice. 3, 6, 22 and 24-month-old mice were given interperitoneal (IP) injections of 500 mg NMN/kg body weight per day or the equivalent volume of PBS for 7 consecutive days at 5:00 pm and 7:00 am on day 8 and sacrificed 4 hr after last injection. […]
# Lactate from skeletal muscle was quantified with a commercially available kit (BioVision) according to the manufacturer's instructions.
# [4] = test system: AKT and IRS-1 phosphorylation; test: Insulin signaling immunoblot (p-AKT, p-IRS-1) in muscle of treated mice; type: in vivo; conditions: old mice treated with NMN; soleus
# From the text: as §1
# Protein extracts from tissue or C2C12 cells were obtained by lysis in ice-cold lysis buffer (150 mM NaCl, 10 mM Tris HCl (pH 7.4), 1 mM EDTA, 1 mM EGTA, 1% Triton X-100, 0.5% NP-40) supplemented with a cocktail of protease and phosphatase inhibitors (Roche). Protein content was determined by the Bradford protein assay (Biorad), and 50 μg proteins were run on SDS-PAGE under reducing conditions. The separated proteins were then electrophoretically transferred to a polyvinylidene difluoride membrane (Perkin-Elmer). […] The immunostaining was detected using horseradish peroxidase-conjugated anti-rabbit or anti-mouse immunoglobulin for 1 h at room temperature.
# [5] = test system: primary myoblasts; test: qPCR of mitochondrial-encoded genes in primary myoblasts infected with NMNAT1 or nontargeting shRNA; type: cell-based, mouse; conditions: primary myoblasts with knockdown of NMNAT1
# [6] = test system: HIF-1α; test: Immunoblot of HIF-1α in PGC-1α/β KO myotubes; type: cell-based, mouse; conditions: PGC-1α/β knockout myotubes treated with DMOG
# Protocol: Primary myoblasts cells were isolated from WT, SIRT1 KO (Price et al., 2012) and PGC-1α/β KO (Zechner et al., 2010) mice as previously described (Price et al., 2012). WT and PGC-1α/β KO primary myoblasts were plated and allowed to differentiate into myotubes by replacing the media with low glucose DMEM supplemented with 2% horse serum (Sigma-Aldrich) for 4 days. After the differentiation the cells were infected with empty vector or flag-SIRT1 adenovirus as described before (Gerhart-Hines et al., 2007). Media was replaced with fresh DMEM supplemented with 2% horse serum (Sigma-Aldrich) for an additional 48 hr and, after that the cells were harvested for the different assays as described. […]
# Protein extracts from tissue or C2C12 cells were obtained by lysis in ice-cold lysis buffer (150 mM NaCl, 10 mM Tris HCl (pH 7.4), 1 mM EDTA, 1 mM EGTA, 1% Triton X-100, 0.5% NP-40) supplemented with a cocktail of protease and phosphatase inhibitors (Roche). Protein content was determined by the Bradford protein assay (Biorad), and 50 μg proteins were run on SDS-PAGE under reducing conditions. […] The immunostaining was detected using horseradish peroxidase-conjugated anti-rabbit or anti-mouse immunoglobulin for 1 h at room temperature.
SMILES,"levels of cellular NAD+ ([1]; 3- and 24-month-old C57BL/6J mice, NMN 500 mg/kg IP for one week, skeletal muscle)","levels of cellular NAD+ ([1]; 6- and 22-month-old C57BL/6J mice, NMN for one week) [fold]","expression of mitochondrial-encoded genes ([2]; 22-month-old mice, NMN one week, gastrocnemius)","mitochondrial-encoded genes in skeletal muscle ([2]; Egln1 KO mice treated with NMN 500 mg/kg IP 7 days, compared to WT controls)","ability of NMN to induce mitochondrially-encoded genes ([2]; SIRT1 KO mice vs WT, NMN or PBS, gastrocnemius)",lactate levels in the skeletal muscle [3],age-induced insulin resistance in the skeletal muscle [4],phosphorylation of AKT and IRS-1 [4],ability of NMN to induce expression of mitochondrial-encoded genes [5],"increase in expression of mitochondrial-encoded genes observed in SIRT1-tg mice ([2]; SIRT1-tg mice, DMOG 300 mg/kg IP per day, 5 days, gastrocnemius)",HIF-1α protein [6]
"NC(=O)c1ccc[n+]([C@@H]2O[C@H](COP(=O)([O-])O)[C@@H](O)[C@H]2O)c1 [NMN, nicotinamide mononucleotide]",approximately 2 fold,2,restored,did not restore mitochondrial-encoded genes,lost in animals lacking SIRT1,suppressed the increase in lactate levels,reverse age-induced insulin resistance,increasing the phosphorylation,completely abolishes the ability of NMN to induce the expression of mitochondrial-encoded genes,–,–
"COC(=O)CNC(=O)C(=O)OC [DMOG, dimethyloxaloylglycine]",–,–,–,–,–,–,–,–,–,abolished the increase in the expression of mitochondrial-encoded genes,stabilizes HIF-1α protein

# Source: patent publication US9877981B2, “NAD biosynthesis and precursors for the treatment and prevention of cancer and proliferation” (President and Fellows of Harvard College, priority 2012, dated 2018)
